Results on 18 compounds are retold here after patent US9241487B2, “Pyrimidine derivatives and use thereof as pesticides” (BAYER INTELLECTUAL PROPERTY GMBH, priority 2010, dated 2016).

Each structure is given as a SMILES string.

One data set has as its system Alternaria solani. Kind of data set: Alternaria test (tomato)/protective. Conditions: 168 h, tomato plants, protective spray, evaluation 7 days after inoculation, read-out: Efficacy (%). Type of data set: in vivo. The procedure: Alternaria Test (Tomato)/Protective
(§1) Solvent: 49 parts by weight of N,N-dimethylformamide
(§2) Emulsifier: 1 part by weight of alkylaryl polyglycol ether
To produce a suitable preparation of active compound, 1 part by weight of active compound is mixed with the stated amounts of solvent and emulsifier, and the concentrate is diluted with water to the desired concentration. To test for protective activity, young tomato plants are sprayed with the preparation of active compound at the stated application rate. 1 day after the treatment, the plants are inoculated with a spore suspension of Alternaria solani and then remain at 100% rd. humidity and 22° C. for 24 h. The plants then remain at 96% rd. atmospheric humidity and a temperature of 20° C. Evaluation is carried out 7 days after the inoculation. 0% means an efficacy which corresponds to that of the control, whereas an efficacy of 100% means that no infection is observed.
(§3) In this test, the following compounds according to the invention show, at an active compound concentration of 500 ppm, an efficacy of 70% or more: […]

The subject of another data set is Leptosphaeria nodorum. Kind of data set: Leptosphaeria nodorum test (wheat)/protective. Type of data set: in vivo. Conditions: Parastagonospora nodorum, wheat plants, protective spray, evaluation 7-9 days after inoculation, read-out: Efficacy (%). How it is done:
Leptosphaeria nodorum Test (Wheat)/Protective
as §1, §2
To produce a suitable preparation of active compound, 1 part by weight of active compound is mixed with the stated amounts of solvent and emulsifier, and the concentrate is diluted with water to the desired concentration. To test for protective activity, young wheat plants are sprayed with the preparation of active compound at the stated application rate. 1 day after the treatment, the plants are inoculated with an aqueous spore suspension of Leptosphaeria nodorum and then remain at 100% relative atmospheric humidity and 22° C. for 48 h. The plants are then placed in a greenhouse at 90% relative atmospheric humidity and a temperature of 22° C. Evaluation is carried out 7-9 days after the inoculation. 0% means an efficacy which corresponds to that of the control, whereas an efficacy of 100% means that no infection is observed. In this test, the following compounds according to the invention show, at an active compound concentration of 500 ppm, an efficacy of 70% or more: […]

In another data set the test system is Septoria tritici. Description: Septoria tritici test (wheat)/protective. The format is in vivo. Conditions: Zymoseptoria tritici, 504 h, protective spray, evaluation 21 days after inoculation, read-out: Efficacy (%). The procedure: Septoria tritici Test (Wheat)/Protective
(§4) Solvent: 49 parts by weight of N,N-dimethylacetamide
as §2
(§5) To produce a suitable preparation of active compound, 1 part by weight of active compound is mixed with the stated amounts of solvent and emulsifier, and the concentrate is diluted with water to the desired concentration. To test for protective activity, young plants are sprayed with the preparation of active compound at the stated application rate. After the spray coating has dried on, the plants are sprayed with a spore suspension of Septoria tritici. The plants remain in an incubation cabin at 20° C. and 100% relative atmospheric humidity for 48 hours. Thereafter, the plants are placed under a translucent hood at 15° C. and 100% relative air humidity for a further 60 hours. The plants are placed in a greenhouse at a temperature of about 15° C. and a relative atmospheric humidity of about 80%. Evaluation follows 21 days after the inoculation. 0% means an efficacy which corresponds to that of the control, whereas an efficacy of 100% means that no infection is observed.
as §3

For data set [1], the system named is Blumeria graminis fsp. hordei. Kind of data set: Blumeria graminis test (barley)/protective. The format is in vivo. Particulars: 168 h, protective spray, evaluation 7 days after inoculation, read-out: Efficacy (%). How it is done:
Blumeria graminis Test (Barley)/Protective
as §4, §2
To produce a suitable preparation of active compound, 1 part by weight of active compound is mixed with the stated amounts of solvent and emulsifier, and the concentrate is diluted with water to the desired concentration. To test for protective activity, young plants are sprayed with the preparation of active compound at the stated application rate. After the spray coating has dried on, the plants are dusted with spores of Blumeria graminis fsp. hordei. The plants are placed in a greenhouse at a temperature of about 18° C. and a relative air humidity of about 80% to promote the development of mildew pustules. Evaluation follows 7 days after the inoculation. 0% means an efficacy which corresponds to that of the control, whereas an efficacy of 100% means that no infection is observed.
as §3

The test system of a further data set is Sphaerotheca fuliginea. Kind of data set: Sphaerotheca test (cucumber)/protective. The format is in vivo. Conditions: Podosphaera fuliginea, 168 h, cucumber plants, protective spray, evaluation 7 days after inoculation, read-out: Efficacy (%). The procedure:
Sphaerotheca Test (Cucumber)/Protective
as §1, §2
To produce a suitable preparation of active compound, 1 part by weight of active compound is mixed with the stated amounts of solvent and emulsifier, and the concentrate is diluted with water to the desired concentration. To test for protective activity, young cucumber plants are sprayed with the preparation of active compound at the stated application rate. 1 day after the treatment, the plants are inoculated with a spore suspension of Sphaerotheca fuliginea. The plants are then placed in a greenhouse at 70% relative air humidity and a temperature of 23° C. Evaluation follows 7 days after the inoculation. 0% means an efficacy which corresponds to that of the control, whereas an efficacy of 100% means that no infection is observed. In this test, the following compounds according to the invention show, at an active compound concentration of 500 ppm, an efficacy of 70% or more: […]

The nature of data set [2]: log P by HPLC on reversed-phase columns (C 18), EEC directive 79/831 Annex V.A8. Type of data set: physicochemical. Conditions: reversed-phase HPLC columns (C 18); method [a]: LC-MS, acidic range pH 2.7, 0.1% aqueous formic acid/acetonitrile, gradient 10% to 95% acetonitrile. The procedure: The log P values were measured according to EEC directive 79/831 Annex V.A8 by HPLC (High Performance Liquid Chromatography) on reversed-phase columns (C 18), using the methods below: [a] The LC-MS determination in the acidic range is carried out at pH 2.7 with 0.1% aqueous formic acid and acetonitrile (contains 0.1% formic acid) as mobile phases; linear gradient from 10% acetonitrile to 95% acetonitrile.

The next data set has as its system Uromyces appendiculatus. Description: Uromyces test (bean)/protective. The format is in vivo. Conditions: 240 h, protective spray, evaluation 10 days after inoculation, read-out: Efficacy (%). The procedure: Uromyces Test (Bean)/Protective
(§6) Solvents: 24.5 parts by weight of acetone
(§7) • 24.5 parts by weight of dimethylacetamide Emulsifier: 1 part by weight of alkylaryl polyglycol ether
To produce a suitable preparation of active compound, 1 part by weight of active compound is mixed with the stated amounts of solvent and emulsifier, and the concentrate is diluted with water to the desired concentration. To test for protective activity, young plants are sprayed with the preparation of active compound at the stated application rate. After the spray coating has dried on, the plants are inoculated with an aqueous spore suspension of the bean rust pathogen Uromyces appendiculatus and then remain in an incubation cabin at about 20° C. and 100% relative atmospheric humidity for 1 day. The plants are then placed in the greenhouse at about 21° C. and a relative atmospheric humidity of about 90%. Evaluation follows 10 days after the inoculation. 0% means an efficacy which corresponds to that of the control, whereas an efficacy of 100% means that no infection is observed.
(§8) In this test, the following compounds according to the invention show, at an active compound concentration of 100 ppm, an efficacy of 70% or more: […]

A further data set relates to Venturia inaequalis. Kind of data set: Venturia test (apple)/protective. Type of data set: in vivo. Particulars: 240 h, protective spray, evaluation 10 days after inoculation, read-out: Efficacy (%). How it is done: Venturia Test (Apple)/Protective
as §6, §7
To produce a suitable preparation of active compound, 1 part by weight of active compound is mixed with the stated amounts of solvent and emulsifier, and the concentrate is diluted with water to the desired concentration. To test for protective activity, young plants are sprayed with the preparation of active compound at the stated application rate. After the spray coating has dried on, the plants are inoculated with an aqueous conidia suspension of the apple scab pathogen Venturia inaequalis and then remain in an incubation cabin at approx. 20° C. and 100% relative air humidity for 1 day. The plants are then placed in the greenhouse at about 21° C. and a relative atmospheric humidity of about 90%. Evaluation follows 10 days after the inoculation. 0% means an efficacy which corresponds to that of the control, whereas an efficacy of 100% means that no infection is observed.
as §8

The next data set relates to Puccinia triticina. Description: Puccinia triticina test (wheat)/protective. The format is in vivo. Conditions: 192 h, protective spray, evaluation 8 days after inoculation, read-out: Efficacy (%). How it is done: Puccinia triticina Test (Wheat)/Protective
as §4, §2
as §5, with “sprayed with spores with a spore” for “sprayed with a spore”, “suspension of Puccinia triticina. The plants” for “suspension of Septoria tritici. The plants”, “48 hours. The plants” for “48 hours. Thereafter, the plants are placed under a translucent hood at 15° C. and 100% relative air humidity for a further 60 hours. The plants”, “of about 20° C. and” for “of about 15° C. and”, “Evaluation follows 8 days after” for “Evaluation follows 21 days after”
as §3

As to `CC(C)(Oc1ccccc1OC(F)(F)F)C(C)(O)c1cncnc1` (stereo not drawn) [Compound 25], in the data set with Alternaria solani, the pest or weed control at 500 ppm was found to be 90%.
Regarding `C=CCC(O)(c1cncnc1)C(C)(C)Sc1ccc(SC(F)(F)F)cc1` (stereo not drawn) [Compound 16], the pest or weed control at 500 ppm with Alternaria solani is 100%; with Leptosphaeria nodorum, 70%.
As for `CC(C)(Sc1ccc(SC(F)(F)F)cc1)C(C)(O)c1cncnc1` (stereo not drawn) [Compound 11], the pest or weed control at 500 ppm was found to be 100% with Alternaria solani and 95% in the data set with Leptosphaeria nodorum.
`CC(C)(C)C(O)(CSc1ccc(SC(F)(F)F)cc1)c1cncnc1` (stereo not drawn) [Compound 4]: the pest or weed control at 500 ppm is 100% in the data set with Septoria tritici; 89% in [1]; 95% in the data set on Alternaria solani; 70% in the data set with Leptosphaeria nodorum; 91% in the data set with Sphaerotheca fuliginea.
`OC(c1cncnc1)(c1ccc(F)cc1F)C1(Oc2ccc(SC(F)(F)F)cc2)CC1` (stereo not drawn) [Compound 8]: the pest or weed control at 500 ppm in the data set with Alternaria solani was 80%; in the data set on Sphaerotheca fuliginea it was 100%.
As to `Cc1cc(OCC(O)(c2cncnc2)C(C)(C)C)ccc1SC(F)(F)F` (stereo not drawn) [Compound 32], the chromatographic logP (commonly lipophilicity estimated from chromatographic retention) in [2] stood at 3.04. In the data set with Sphaerotheca fuliginea, the pest or weed control at 500 ppm stood at 95%.
Regarding `CC#CC(O)(c1cncnc1)C(C)(C)Sc1ccc(OC(F)(F)F)cc1` (stereo not drawn) [Compound 13], the pest or weed control at 500 ppm in the data set on Alternaria solani amounted to 100%; in the data set on Leptosphaeria nodorum, 95%; in the data set on Sphaerotheca fuliginea, 76%.
With `OC(COc1ccc(SC(F)(F)F)cc1)(c1cncnc1)C1(Cl)CC1` (stereo not drawn) [Compound 21], the pest or weed control at 500 ppm is 95% in the data set on Alternaria solani and 100% in the data set with Sphaerotheca fuliginea.
Turning to `CC(C)(C)C(O)(CCc1ccc(SC(F)(F)F)cc1)c1cncnc1` (stereo not drawn) [Compound 7], the pest or weed control at 500 ppm in the data set with Alternaria solani was 94%; in the data set with Leptosphaeria nodorum it was 95%; in the data set with Sphaerotheca fuliginea it was 95%.
`OC(COc1ccc(OC(F)(F)F)cc1)(c1cncnc1)C1(Cl)CC1` (stereo not drawn) [Compound 20]: the pest or weed control at 100 ppm in the data set on Uromyces appendiculatus came to 98%; in the data set with Venturia inaequalis, 100%. Further, the pest or weed control at 500 ppm was 100% in the data set on Alternaria solani, 95% with Leptosphaeria nodorum and 75% with Sphaerotheca fuliginea.
Take `CC(C)(Oc1ccc(OC(F)(F)F)cc1)C(C)(O)c1cncnc1` (stereo not drawn) [Compound 9]: the pest or weed control at 500 ppm with Septoria tritici is 90%; in [1], 100%; in the data set with Alternaria solani it was 100%; with Leptosphaeria nodorum, 100%; with Sphaerotheca fuliginea, 95%; in the data set on Puccinia triticina, 100%. The figures for the pest or weed control at 100 ppm with Uromyces appendiculatus and with Venturia inaequalis were 100% and 94%, respectively.
As to `CC#CC(O)(c1cncnc1)C(C)(C)Sc1ccc(SC(F)(F)F)cc1` (stereo not drawn) [Compound 15], the pest or weed control at 500 ppm in the data set with Alternaria solani amounted to 94%; in the data set with Leptosphaeria nodorum it was 95%; with Sphaerotheca fuliginea, 88%.
In the case of `CC(C)C(O)(c1cncnc1)C(C)(C)Oc1ccccc1OC(F)(F)F` (stereo not drawn) [Compound 27], the pest or weed control at 500 ppm in the data set on Sphaerotheca fuliginea was found to be 88%.
In the case of `CC#CC(O)(c1cncnc1)C(C)(C)Oc1ccc(OC(F)(F)F)cc1` (stereo not drawn) [Compound 14], the pest or weed control at 500 ppm in the data set on Septoria tritici is 90%; in data set [1], 100%; with Alternaria solani, 94%; in the data set with Leptosphaeria nodorum, 100%; in the data set with Sphaerotheca fuliginea it was 95%; with Puccinia triticina it was 89%.
For `CC#CC(O)(c1cncnc1)C(C)(C)Oc1cccc(OC(F)(F)F)c1` (stereo not drawn) [Compound 23], the pest or weed control at 500 ppm in the data set with Alternaria solani was determined as 75%; in the data set on Leptosphaeria nodorum it was 70%; with Sphaerotheca fuliginea, 88%.
`CC(C)C(O)(c1cncnc1)C(C)(C)Oc1cccc(OC(F)(F)F)c1` (stereo not drawn) [Compound 24]: the pest or weed control at 500 ppm was found to be 95% with Alternaria solani, 80% in the data set with Leptosphaeria nodorum and 83% in the data set with Sphaerotheca fuliginea.
As to `CC(C)(Sc1ccc(OC(F)(F)F)cc1)C(C)(O)c1cncnc1` (stereo not drawn) [Compound 10], the pest or weed control at 500 ppm in the data set on Alternaria solani and in the data set with Leptosphaeria nodorum was 100% throughout.
As for `CC(C)(Oc1cccc(OC(F)(F)F)c1)C(C)(O)c1cncnc1` (stereo not drawn) [Compound 22], the pest or weed control at 500 ppm is 100% in the data set on Alternaria solani, 100% in the data set on Leptosphaeria nodorum and 95% with Sphaerotheca fuliginea. In addition, the pest or weed control at 100 ppm in the data set on Venturia inaequalis came out at 94%.
